What was measured:
Conditions in all cases: for ΔTm: Compound concentration 10.0 uM
[1] = molecular target: RAC-gamma serine/threonine-protein kinase (Homo sapiens) (UniProt Q9Y243); test: AKT3 SGC Tm panel (DSF)
[2] = molecular target: Calcium/calmodulin-dependent protein kinase type II subunit delta (Homo sapiens) (UniProt Q13557); test: CAMK2D SGC Tm panel (DSF)
[3] = molecular target: T1, Dual specificity tyrosine-phosphorylation-regulated kinase 2 (Homo sapiens) (UniProt Q92630); test: DYRK2 SGC Tm panel (DSF)
T1 sequence (whole entry): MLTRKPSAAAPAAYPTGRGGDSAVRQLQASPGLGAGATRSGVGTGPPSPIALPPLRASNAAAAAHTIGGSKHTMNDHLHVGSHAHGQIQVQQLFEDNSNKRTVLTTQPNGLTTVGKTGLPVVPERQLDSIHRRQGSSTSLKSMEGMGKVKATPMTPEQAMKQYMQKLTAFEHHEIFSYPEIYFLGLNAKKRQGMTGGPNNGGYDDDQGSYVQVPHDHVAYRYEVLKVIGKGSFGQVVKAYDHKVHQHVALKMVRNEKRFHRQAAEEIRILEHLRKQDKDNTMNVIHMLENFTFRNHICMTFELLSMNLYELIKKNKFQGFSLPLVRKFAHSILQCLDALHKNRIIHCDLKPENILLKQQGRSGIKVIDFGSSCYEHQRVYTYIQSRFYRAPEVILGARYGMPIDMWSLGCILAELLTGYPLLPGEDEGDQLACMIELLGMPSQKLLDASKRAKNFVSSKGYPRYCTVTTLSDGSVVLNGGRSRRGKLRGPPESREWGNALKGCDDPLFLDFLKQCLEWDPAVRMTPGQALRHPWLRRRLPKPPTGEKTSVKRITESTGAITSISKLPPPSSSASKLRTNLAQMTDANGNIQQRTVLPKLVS

[4] = molecular target: T2, Ephrin type-B receptor 3 (Homo sapiens) (UniProt P54753); test: EPHB3 SGC Tm panel (DSF)
T2 sequence (whole entry): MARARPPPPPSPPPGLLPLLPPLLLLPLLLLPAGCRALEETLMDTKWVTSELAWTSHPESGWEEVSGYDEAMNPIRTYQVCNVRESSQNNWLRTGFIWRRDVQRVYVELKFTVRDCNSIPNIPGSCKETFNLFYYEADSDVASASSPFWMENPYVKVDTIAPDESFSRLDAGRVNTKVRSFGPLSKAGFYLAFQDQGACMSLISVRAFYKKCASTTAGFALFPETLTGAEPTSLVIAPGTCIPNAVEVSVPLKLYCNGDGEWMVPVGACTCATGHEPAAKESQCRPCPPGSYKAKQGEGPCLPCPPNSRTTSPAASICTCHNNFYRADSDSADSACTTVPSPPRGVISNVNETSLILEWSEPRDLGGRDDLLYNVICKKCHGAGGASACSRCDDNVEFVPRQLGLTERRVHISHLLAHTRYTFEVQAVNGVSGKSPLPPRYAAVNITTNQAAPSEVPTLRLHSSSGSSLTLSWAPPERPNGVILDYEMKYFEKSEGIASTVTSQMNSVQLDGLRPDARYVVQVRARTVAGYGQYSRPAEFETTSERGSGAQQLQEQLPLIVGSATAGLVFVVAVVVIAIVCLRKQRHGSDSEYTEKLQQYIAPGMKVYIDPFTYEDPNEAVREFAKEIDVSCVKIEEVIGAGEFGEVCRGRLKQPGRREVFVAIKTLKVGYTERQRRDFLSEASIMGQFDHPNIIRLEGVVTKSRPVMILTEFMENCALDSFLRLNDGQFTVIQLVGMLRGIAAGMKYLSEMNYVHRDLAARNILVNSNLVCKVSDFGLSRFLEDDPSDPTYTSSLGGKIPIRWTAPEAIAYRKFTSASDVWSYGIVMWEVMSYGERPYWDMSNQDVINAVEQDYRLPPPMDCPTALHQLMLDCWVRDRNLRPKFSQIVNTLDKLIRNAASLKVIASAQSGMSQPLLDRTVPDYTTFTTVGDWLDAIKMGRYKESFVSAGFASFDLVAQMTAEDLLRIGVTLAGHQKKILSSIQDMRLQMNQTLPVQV

[5] = molecular target: Tyrosine-protein kinase Fes/Fps (Homo sapiens) (UniProt P07332); test: FES SGC Tm panel (DSF)
Sequence of Tyrosine-protein kinase Fes/Fps (Homo sapiens) (P07332 whole entry): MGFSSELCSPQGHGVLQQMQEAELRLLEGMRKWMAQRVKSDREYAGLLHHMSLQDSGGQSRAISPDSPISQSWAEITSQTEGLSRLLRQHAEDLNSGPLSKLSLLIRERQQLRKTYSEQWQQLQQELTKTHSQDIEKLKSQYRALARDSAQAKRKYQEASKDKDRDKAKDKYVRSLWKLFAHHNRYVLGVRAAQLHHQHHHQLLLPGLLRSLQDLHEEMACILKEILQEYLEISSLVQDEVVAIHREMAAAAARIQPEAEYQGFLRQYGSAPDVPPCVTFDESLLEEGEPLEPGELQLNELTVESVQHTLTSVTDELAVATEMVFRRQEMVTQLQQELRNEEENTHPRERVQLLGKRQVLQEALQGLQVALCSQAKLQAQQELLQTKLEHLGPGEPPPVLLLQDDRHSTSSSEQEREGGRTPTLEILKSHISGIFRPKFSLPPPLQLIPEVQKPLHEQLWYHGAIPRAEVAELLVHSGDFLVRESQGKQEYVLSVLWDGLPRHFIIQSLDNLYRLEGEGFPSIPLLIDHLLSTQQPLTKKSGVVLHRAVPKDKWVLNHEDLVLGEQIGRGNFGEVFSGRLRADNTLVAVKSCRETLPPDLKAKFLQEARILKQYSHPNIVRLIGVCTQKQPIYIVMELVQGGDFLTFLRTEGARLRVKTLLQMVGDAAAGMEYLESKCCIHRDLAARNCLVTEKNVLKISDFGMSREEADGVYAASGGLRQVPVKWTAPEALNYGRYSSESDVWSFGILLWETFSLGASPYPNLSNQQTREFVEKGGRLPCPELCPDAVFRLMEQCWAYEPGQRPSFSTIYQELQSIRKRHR

[6] = molecular target: T3, Tyrosine-protein kinase Mer (Homo sapiens) (UniProt Q12866); test: MERTK SGC Tm panel (DSF)
T3 sequence (whole entry): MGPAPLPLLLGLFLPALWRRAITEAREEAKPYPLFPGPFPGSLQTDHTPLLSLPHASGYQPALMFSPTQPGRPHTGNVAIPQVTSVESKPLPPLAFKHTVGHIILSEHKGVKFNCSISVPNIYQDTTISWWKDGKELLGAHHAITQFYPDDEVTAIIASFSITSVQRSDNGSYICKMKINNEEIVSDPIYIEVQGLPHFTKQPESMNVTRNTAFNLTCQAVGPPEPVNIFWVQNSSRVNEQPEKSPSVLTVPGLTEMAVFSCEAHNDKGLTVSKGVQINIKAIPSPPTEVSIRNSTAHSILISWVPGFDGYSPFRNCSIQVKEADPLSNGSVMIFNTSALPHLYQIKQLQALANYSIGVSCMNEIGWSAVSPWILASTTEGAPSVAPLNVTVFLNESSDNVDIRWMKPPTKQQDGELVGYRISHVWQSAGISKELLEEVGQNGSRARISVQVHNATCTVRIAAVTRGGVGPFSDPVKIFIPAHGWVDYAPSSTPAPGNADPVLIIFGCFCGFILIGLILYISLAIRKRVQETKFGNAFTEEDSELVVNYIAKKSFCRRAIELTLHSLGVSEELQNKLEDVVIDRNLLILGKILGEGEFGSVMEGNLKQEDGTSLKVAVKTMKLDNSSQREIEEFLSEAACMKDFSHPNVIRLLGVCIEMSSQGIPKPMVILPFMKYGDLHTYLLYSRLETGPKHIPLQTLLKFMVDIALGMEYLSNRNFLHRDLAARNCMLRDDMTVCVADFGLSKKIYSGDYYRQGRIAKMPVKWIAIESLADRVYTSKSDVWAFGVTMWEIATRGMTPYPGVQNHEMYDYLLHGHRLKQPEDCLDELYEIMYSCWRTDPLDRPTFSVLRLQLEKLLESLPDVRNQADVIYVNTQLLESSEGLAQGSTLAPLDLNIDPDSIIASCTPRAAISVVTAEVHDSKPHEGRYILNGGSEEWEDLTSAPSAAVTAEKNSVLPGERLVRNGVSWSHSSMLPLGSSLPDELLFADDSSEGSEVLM

[7] = molecular target: Serine/threonine-protein kinase OSR1 (Homo sapiens) (UniProt O95747); test: OSR1 SGC Tm panel (DSF)
Sequence of Serine/threonine-protein kinase OSR1 (Homo sapiens) (O95747 2-527 limits assumed): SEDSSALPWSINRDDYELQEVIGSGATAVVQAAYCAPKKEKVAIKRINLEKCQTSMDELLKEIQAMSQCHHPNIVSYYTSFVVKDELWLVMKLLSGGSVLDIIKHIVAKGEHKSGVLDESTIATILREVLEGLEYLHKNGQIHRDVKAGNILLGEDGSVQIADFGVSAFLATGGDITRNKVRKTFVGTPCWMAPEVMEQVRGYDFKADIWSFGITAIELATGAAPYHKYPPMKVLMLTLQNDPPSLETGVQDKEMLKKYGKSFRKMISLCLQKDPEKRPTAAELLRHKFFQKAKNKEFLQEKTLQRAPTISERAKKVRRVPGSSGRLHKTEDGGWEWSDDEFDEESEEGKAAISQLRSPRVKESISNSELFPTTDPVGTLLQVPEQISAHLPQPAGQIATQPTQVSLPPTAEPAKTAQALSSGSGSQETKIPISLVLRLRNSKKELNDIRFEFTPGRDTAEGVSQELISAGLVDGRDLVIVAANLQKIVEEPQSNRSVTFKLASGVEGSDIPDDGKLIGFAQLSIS

Sequence of Calcium/calmodulin-dependent protein kinase type II subunit delta (Homo sapiens) (Q13557 whole entry): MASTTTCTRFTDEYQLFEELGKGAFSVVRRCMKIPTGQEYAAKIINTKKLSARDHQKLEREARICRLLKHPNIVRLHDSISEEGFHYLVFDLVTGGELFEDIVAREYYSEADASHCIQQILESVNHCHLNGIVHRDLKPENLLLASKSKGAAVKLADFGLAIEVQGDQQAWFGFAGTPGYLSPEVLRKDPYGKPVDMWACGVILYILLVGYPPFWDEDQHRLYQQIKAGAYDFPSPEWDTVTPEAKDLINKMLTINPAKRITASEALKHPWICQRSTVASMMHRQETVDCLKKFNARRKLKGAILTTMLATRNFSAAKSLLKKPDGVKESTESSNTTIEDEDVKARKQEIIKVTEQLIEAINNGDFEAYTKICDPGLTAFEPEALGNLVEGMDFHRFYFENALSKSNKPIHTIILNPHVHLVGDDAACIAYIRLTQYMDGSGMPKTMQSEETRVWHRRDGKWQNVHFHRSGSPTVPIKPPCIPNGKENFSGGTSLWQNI
Sequence of RAC-gamma serine/threonine-protein kinase (Homo sapiens) (Q9Y243 whole entry): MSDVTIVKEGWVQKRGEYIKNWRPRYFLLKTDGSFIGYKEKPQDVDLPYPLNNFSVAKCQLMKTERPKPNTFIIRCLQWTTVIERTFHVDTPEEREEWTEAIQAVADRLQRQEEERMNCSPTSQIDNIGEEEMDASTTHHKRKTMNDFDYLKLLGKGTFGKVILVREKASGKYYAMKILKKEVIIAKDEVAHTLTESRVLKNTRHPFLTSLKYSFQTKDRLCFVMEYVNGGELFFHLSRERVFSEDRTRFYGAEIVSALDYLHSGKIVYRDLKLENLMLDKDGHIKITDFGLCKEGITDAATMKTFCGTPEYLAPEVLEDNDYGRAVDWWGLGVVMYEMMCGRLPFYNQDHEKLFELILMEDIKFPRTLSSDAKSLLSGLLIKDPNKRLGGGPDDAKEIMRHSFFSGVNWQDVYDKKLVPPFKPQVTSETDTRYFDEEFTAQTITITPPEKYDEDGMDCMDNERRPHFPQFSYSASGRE

| SMILES | delta Tm Staurosporine positive control [1] | ΔTm [1] | delta Tm Staurosporine positive control [2] | ΔTm [2] | delta Tm Staurosporine positive control [3] | ΔTm [3] | delta Tm Staurosporine positive control [4] | ΔTm [4] | delta Tm Staurosporine positive control [5] | ΔTm [5] | delta Tm Staurosporine positive control [6] | ΔTm [6] | delta Tm Staurosporine positive control [7] | ΔTm [7] |
| --- | --- | --- | --- | --- | --- | --- | --- | --- | --- | --- | --- | --- | --- | --- |
| CCC[C@H]1CNCc2c1[nH]c(=O)c(C#N)c2N1CCC2(CC1)CC2 | 7.15 | -0.443 | 18.2 | 0.118 | 5.55 | -0.198 | 7.02 | -2.51 | 9.22 | -0.11 | 6.4 | -0.991 | 8.41 | -0.0871 |
| CCC[C@@H]1CNCc2c1[nH]c(=O)c(C#N)c2N1CCC2(CC1)CC2 | 7.15 | -0.39 | 18.2 | -0.155 | 5.55 | -0.189 | 7.02 | -2.16 | 9.22 | -0.389 | 6.4 | -0.932 | 8.41 | 0.204 |
